Measurements taken from patent US10487119B2, “Peptides for diagnosis and treatment of cancer” (National Taiwan University, priority 2013, dated 2019).
Like-named read-outs stand apart in the source and are kept apart here. No end group written: not given here.

Legend:
NPC cells = assay: Addition of targeted peptide to NPC cell culture medium; format: cell-based; conditions: 1 mg/mL in NPC cells culture medium, sustained to 10 days
From the text: Apparently, this finding indicate that the protein bound by the targeted peptide is not a receptor protein or the like thereof.

NPC-TW07 cells = assay: Flow cytometry analysis of FITC-peptide binding to cells; format: cell-based
From the text: (§1) The cultured cells, including nasopharyngeal carcinoma (NPC-TW01 and NPC-TW07), non-small cell lung cancer (H1299 and A549), neuroblastoma (Be2C), breast cancer (MB157) and immortalized embryonic renal epithelia (TEKID) ([…]) are subjected to flow cytometer (FACSCAN, BD Co., U.S.A.) after the FITC (Fluorescein isothiocyanate)-targeted peptide SEQ ID NO:1 treatment. Simultaneously, FITC-control peptide, FITC-biotin-targeted peptide SEQ ID NO: 1 (B-P) and FITC-biotin-control peptide (B-C-P) are used for flow cytometry comparison.

NPC biopsy specimens = assay: Peptide histochemical localization in formalin-fixed paraffin-embedded NPC biopsy specimens; design: species or system human; conditions: overnight at 4° C.
Method: (§3) The sections are incubated overnight at 4° C. with the P-Dex-Fe3O4 nanoparticles, and washed with PBS, then are incubated for 15-30 min with routine Prussian blue reagent (containing 2% potassium ferricyanide (Sigma-aldrich.com. St Louis Mo., U.S.A.) and 0.5 N HCl in dH2O=1:1), followed by counterstaining for 5 min with nuclear fast red solution, washed with water, and mounted with 50% glycerol directly or with balsam after alcohol dehydration.

HepG2 tumor cells = assay: Prussian blue staining of formalin-fixed, Triton X-100 treated HCC cell line; format: cell-based
Method: (§2) After the blood smears were fixed by formaldehyde, they were treated with or without Triton X-100 detergent and then stained with L-P-Fe3O4, SP-94-P-Fe3O4 or Control-P-Fe3O4 (C-P-Fe3O4) (40 μg/mL) and subjected to Prussian blue reaction with nuclear fast red contrast staining. Using the similar peptide histochemical procedure, the HepG2 and Huh-7 tumor cells were also stained. But in addition to the L-P-Fe3O4 and SP-94-P-Fe3O4, a ratio of 1:1 of L-P-Fe3O4: SP-94-P-Fe3O4 were mixed and used to stain the HepG2 and Huh-7 tumor cells.

Huh-7 tumor cells = assay: as above; format: cell-based
Method: as §2

blood monocytes = assay: Prussian blue staining of blood monocytes; format: cell-based; conditions: 1.0 hr and 37° C. for 4 hr
Method: Blood monocytes, hepatoma (Hep G2) and pancreatic cancer (Pan 1) cell lines are incubated with P-Dex-Fe3O4 nanoparticle for 1.0 hr and 37° C. for 4 hr, and then are stained with Prussian blue reagent.

[1] = test system: breast cancer surgical specimens; assay: Peptide histochemical localization in breast cancer surgical specimens; design: species or system human
Method: as §3

[2] = test system: normal peripheral blood cells; assay: Prussian blue staining of normal peripheral blood smears; format: cell-based, human
From the text: The present invention prepared L-peptide-linked dextran-coated iron oxide nanoparticles, such as, L-P-Fe3O4, SP-94-P-Fe3O4, PC5-52-P-Fe3O4 and control-peptide-Fe3O4 nanoparticles (C-P-Fe3O4). The dextran coated-Fe3O4 nanoparticles (Dex-Fe3O4) were purchased from MAGQU Company. This company conjugates L-peptide, SP-94-peptide and PC5-52-peptide, separately, to the Dex-Fe3O4 nanoparticles. Each Dex-Fe3O4 can be linked with more than 10 peptide molecules. For localization of the peptide targeted protein in HepG2 and Huh-7 cell lines, the present invention first have to check whether our peptide can also bind to the mononuclear cells in the human peripheral blood. The mononuclear cells were obtained from the normal personal blood using Histopaque-1077 solution (SIGMA, St, Louis, Mo. U.S.A).
as §2

[3] = test system: breast cancer cells (MDA-MB-231); assay: Prussian blue staining of breast cancer cell line; format: cell-based
[4] = test system: hepatoma surgical specimens; assay: Peptide histochemical localization in hepatoma surgical specimens; design: species or system human; conditions: for Prussian blue reaction product in tumor cells of hepatoma sections: formalin-fixed paraffin-embedded
From the text: Peptide histochemical diagnosis of the present invention can be applied to hepatoma surgical specimens.

NPC cells (NPC-TW01) = assay: Prussian blue staining of cultured NPC cells incubated with peptide-linked iron oxide nanoparticles; format: cell-based; conditions: 4° C. for 1.0 hr and 37° C. for 4 hr
From the text: The dextran coated-Fe3O4 is linked with the targeted peptide SEQ ID NO:1 or the FITC-targeted peptide SEQ ID NO:1 by the MagQu Company. Dextran is used as the hydrophilic surfactant layer. The iron oxide fluid with the desired concentration is available by diluting the highly concentrated iron oxide fluid with a pH 7.4 phosphate buffered saline (PBS) solution. […] Cells are washed in a 2% fetal bovine serum in PBS. After fixation, the binding ability between the targeted peptide SEQ ID NO: 1 and tumor cells can be observed by Prussian blue reagent; each iron oxide nanoparticle is bound by approximately above 10 targeted peptides.

[5] = test system: hepatoma (Hep G2) cell line; assay: Prussian blue staining of hepatoma cell line; format: cell-based
From the text: In addition to the targeted peptide SEQ ID NO: 1, the present invention also provides another targeted peptide SEQ ID NO: 2 for synthesizing the targeted peptide SEQ ID NO: 2-linked dextran-coated iron oxide nanoparticles.

[6] = test system: pancreatic cancer (Pan 1) cell line; assay: Prussian blue staining of pancreatic cancer cell line; format: cell-based
[7] = test system: hepatocellular carcinoma surgical specimens; assay: Peptide histochemistry of hepatocellular carcinoma (HCC) surgical specimens; design: species or system human; conditions: for Prussian blue staining pattern in HCC surgical sections: 40 μg per mL, overnight; for Average percentage of stained tumor cell number 25-50% / Average percentage of stained tumor cell number <25% / Average percentage of stained tumor cell number >75%: N = 30, ten HPF (x 400)
Method: For hepatocellular carcinoma surgical specimens, after the deparaffinization of the paraffin-embedded sections and retrieval of targeted protein molecule, as part of the routine immunohistochemistry described as above-mentioned, the sections were incubated overnight with (a) The L-P-Fe3O4 (40 μg per mL); (b) SP-94-P-Fe3O4 (40 μg/mL); (c) one to one ratio of (a) and (b), then with routine Prussian blue reagents, followed by a counter staining for 2 min with nuclear fast red solution. The present invention has used this method to examine 30 hepatocellular carcinoma surgical specimens without difficulty. To count the positive stained cell number of the Prussian blue stained cells in each paraffin section, which are counted 10 high power fields (×400).

[8] = test system: pancreatic cancer sections; assay: Peptide histochemical localization in pancreatic surgical specimens; design: species or system human; conditions: formalin-fixed paraffin-embedded
From the text: Peptide histochemical diagnosis of the present invention can be applied to pancreatic surgical specimens, ether the targeted peptide is SEQ ID NO: 1 or SEQ ID NO: 2.

HepG2 xenografts = assay: Peptide targeted chemotherapy of mice bearing HepG2 xenografts; format: in vivo; conditions: SCID mice bearing hepatoma xenograft
Method: For the peptide targeted chemotherapy, 40 male SCID mice were transplanted with […] HepG2 cells into their right thigh subcutaneously; after 10 days, solid xenografts measuring approximately 0.8 cm in diameter were found in each mouse, then they were divided into four groups (each group included 10 mice). The first group was injected with PBS; the second and third groups were injected either with L-P-L-D or PC5-52-P-L-D, separately. Each dose contained 2 mg doxorubicin/kg of mouse body weight. The fourth group mice were injected with L-P-L-D (1 mg doxorubicin/kg) mixed with PC5-52-P-L-D (1 mg doxorubicin/kg). All doses were injected through the tail vein, once per week, for a total of 4 injections, and all animals were sacrificed at day 35. The body weight and tumor size were measured weekly. All animals were examined by routine autopsy. The xenograft tumors and all visceral organs were examined by histopathological sections after stained by hematoxylin and eosin. The pegylated peptide was linked to L-D in our laboratory according to our previously published methods (Cancer Res. 64:8002-8008, Nov. 1, 2004). For comparison, another animal experiment was performed. In the later experiment, the present invention used NSG (NOD-SCID immunodeficiency gamma strain animals); the experiments were totally similar to the NOD SCID mice case. […]

[9] = test system: hepatoma and pancreatic cancer cells; assay: FITC-peptide binding to hepatoma and pancreatic cancer cells; format: cell-based
[10] = test system: neuroblastoma (Be2C) cells; assay: Flow cytometry analysis of FITC-peptide binding to cells; format: cell-based
From the text: as §1

[11] = test system: breast cancer (MB157) cells; assay: as above; format: cell-based
From the text: as §1

[12] = test system: non-small cell lung cancer (A549) cells; assay: as above; format: cell-based
From the text: as §1

NPC-TW01 cells = assay: as above; format: cell-based
From the text: as §1

[13] = test system: non-small cell lung cancer (H1299) cells; assay: as above; format: cell-based
From the text: as §1

[14] = test system: immortalized embryonic renal cell line (293T); assay: as above; format: cell-based, human; conditions: 293T immortalized renal cell line
From the text: as §1

Substance: targeted peptide SEQ ID NO: 1: 12 amino acid targeted peptide (L-peptide) obtained from nasopharyngeal carcinoma (RLLDTNRPLLPY)
- change of tumor cell morphology and behavior (NPC cells): no any specific change of tumor cell morphology and behavior

Substance: FITC-linked control peptide SEQ ID NO: 3: FITC-labelled control peptide (RLLDTNRPLGGG; also: FITC label) [reference compound]
- binding to NPC-TW07 cells (flow cytometry histogram) (NPC-TW07 cells): very weak binding activity

Substance: P-Dex-Fe3O4 (RLLDTNRPLLPY)
- Prussian blue reaction product in tumor cells of NPC biopsy sections (NPC biopsy specimens): the Prussian blue reaction product is easily identified in the tumor cells of stained sections
- Prussian blue stained HepG2 tumor cells (HepG2 tumor cells): many tumor cells were stained by a blue reaction product
- Prussian blue stained Huh-7 tumor cells (Huh-7 tumor cells): stained cell number is somewhat a little more than that of SP-94-P-Fe3O4 stained case
- Prussian blue reaction product in blood monocytes (blood monocytes): no reaction product
- Prussian blue reaction product in tumor cells from breast cancer metastatic axillary lymph nodes [1]: reveal blue reaction product
- Prussian blue reaction product in stromal regions in tumor nests ([1]; breast cancer sections): no blue reaction product
- Prussian blue reaction product in breast cancer sections ([1]; formalin-fixed paraffin-embedded, specimens more than 1 cm in diameter): show the Prussian blue reaction products
- Prussian blue reaction product in fixed blood smears treated with Triton X-100 ([2]; with Triton X-100): the mononuclear cells but not red blood cells showed blue reaction product in their cytoplasm
- Prussian blue reaction product in blood smears fixed in formalin ([2]; without Triton X-100): no reaction product was seen
- Prussian blue reaction product in breast cancer cells [3]: the reaction products appear in most of the cytoplasm of breast cancer cells
- Prussian blue reaction product in tumor cells of hepatoma sections [4]: show in single infiltrating tumor cells
- Prussian blue reaction product in normal cells of hepatoma sections ([4]; normal cells compressed by tumor cells): the blue reaction products do not show in the normal cells
- Prussian blue reaction product in NPC cells (NPC cells (NPC-TW01)): the reaction products are seen in the cytoplasm of a majority of the tumor cells
- Prussian blue reaction product in hepatoma cell line [5]: show blue reaction products
- Prussian blue reaction product in hepatoma cell line ([5]; listed as targeted peptide SEQ ID NO:1-linked dextran-coated iron oxide nanoparticles): blue reaction product
- Prussian blue reaction product in pancreatic cancer cell line [6]: show blue reaction products
- Prussian blue staining pattern in HCC surgical sections [7]: the Prussian blue reaction product was easily identified in the tumor cells in stained sections
- Average percentage of stained tumor cell number 25-50% [7]: 7 cases
- Average percentage of stained tumor cell number <25% [7]: 6 cases
- Average percentage of stained tumor cell number >75% [7]: 17 cases
- Prussian blue reaction product in pancreatic cancer sections [8]: all show the reaction products

Substance: SP-94-P-Fe3O4 (SFSIIHTPILPL)
- Prussian blue stained HepG2 tumor cells (HepG2 tumor cells): the stained cell number was lower than that of the L-P-Fe3O4 treated case
- Prussian blue reaction product in tumor cells of hepatoma sections [4]: the Prussian blue products can also be observed in the tumor cells
- Prussian blue reaction product in hepatoma cell line [5]: blue reaction product
- Prussian blue staining pattern in HCC surgical sections [7]: the staining pattern was the same as L-P-Fe3O4 staining
- Average percentage of stained tumor cell number 25-50% [7]: 9 cases
- Average percentage of stained tumor cell number <25% [7]: 5 cases
- Average percentage of stained tumor cell number >75% [7]: 16 cases
- Prussian blue reaction product in pancreatic cancer sections [8]: all show the reaction products

Substance: control peptide (RLLDTNRPLGGG; also: FITC or biotin label)
- adverse event / visceral organs (HepG2 xenografts): the visceral organs revealed marked apoptotic change
- tumor growth / xenograft size (HepG2 xenografts): the xenograft size was also decreased

Substance: FITC-targeted peptide SEQ ID NO: 2: FITC-labelled targeted peptide SEQ ID NO: 2 (SFSIIHTPILPL; also: FITC label)
- binding to hepatoma and pancreatic cancer cells [9]: can be used to bind to hepatoma and pancreatic cancer cells

Substance: FITC-targeted peptide SEQ ID NO: 1: fluorescein isothiocyanate-labelled targeted peptide SEQ ID NO:1 (RLLDTNRPLLPY; also: FITC label)
- binding to NPC-TW07 cells (flow cytometry histogram) (NPC-TW07 cells): a clear peak is found in the histogram
- binding to Be2C cells (flow cytometry) [10]: a clear binding peak
- binding to MB157 cells (flow cytometry) [11]: a clear binding peak
- binding to A549 cells (flow cytometry) [12]: a clear binding peak
- binding to NPC-TW01 cells (flow cytometry) (NPC-TW01 cells): a clear binding peak
- binding to H1299 cells (flow cytometry) [13]: a clear binding peak
- binding to 293T cells (flow cytometry) [14]: without showing any binding phenomenon
